Legend:
[1] = target: T1, LdtMab2 (Mycobacteroides abscessus, UniProt B1MMQ4); experiment: timed ESI-MS of intact protein, +[…] Da carbamoyl-enzyme adduct after […] h; type: binding
T1 construct: gene MAB_1530
T1 sequence (B1MMQ4 42-406): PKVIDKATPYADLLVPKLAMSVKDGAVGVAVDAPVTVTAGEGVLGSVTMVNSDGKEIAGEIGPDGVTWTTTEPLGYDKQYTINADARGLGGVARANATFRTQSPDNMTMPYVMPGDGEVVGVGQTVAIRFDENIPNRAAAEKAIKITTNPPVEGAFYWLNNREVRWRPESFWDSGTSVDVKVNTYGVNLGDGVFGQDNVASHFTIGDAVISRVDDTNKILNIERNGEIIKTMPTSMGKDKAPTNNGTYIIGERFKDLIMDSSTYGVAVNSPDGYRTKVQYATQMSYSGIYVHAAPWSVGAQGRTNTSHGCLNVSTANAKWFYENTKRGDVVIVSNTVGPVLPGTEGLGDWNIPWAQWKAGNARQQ

[2] = target: T2, BlaMab (Mycobacteroides abscessus, UniProt B1MCI3); experiment: nitrocefin competition kinetics with purified enzyme; ESI-MS carbamoyl-enzyme adduct (+[…] Da); Kd = koff/(k2/K); type: biochemical
T2 construct: gene MAB_2875

[3] = target: T3, LdtMab4 (Mycobacteroides abscessus, UniProt B1MKW1); experiment: timed ESI-MS of intact protein, +[…] Da carbamoyl-enzyme adduct after […] h; type: binding
T3 construct: gene MAB_4537c
T3 sequence (B1MKW1 42-333): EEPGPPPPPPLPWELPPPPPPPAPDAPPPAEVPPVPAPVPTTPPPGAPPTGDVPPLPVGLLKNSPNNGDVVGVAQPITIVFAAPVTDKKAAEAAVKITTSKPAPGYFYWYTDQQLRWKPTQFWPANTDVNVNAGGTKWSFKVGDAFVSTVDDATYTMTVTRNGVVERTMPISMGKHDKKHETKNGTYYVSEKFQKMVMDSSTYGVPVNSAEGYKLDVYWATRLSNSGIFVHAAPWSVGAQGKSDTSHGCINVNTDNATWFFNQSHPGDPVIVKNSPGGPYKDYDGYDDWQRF

[4] = system: O=C(Cc1cccs1)N[C@@H]1C(=O)N2C(C(=O)O)=C(/C=C/c3ccc([N+](=O)[O-])cc3[N+](=O)[O-])CS[C@H]12; experiment: purified protein; type: biochemical, Mycobacteroides abscessus

| Compound | timed ESI-MS of intact protein, +278 Da carbamoyl-enzyme adduct after 2 h [1] | Kd [2] [nM] | timed ESI-MS of intact protein, +276 Da carbamoyl-enzyme adduct after 2 h [3] | Km [4] [µM] |
| --- | --- | --- | --- | --- |
| CC1=C[C@@H]2CN(C(=O)N2OS(=O)(=O)O)[C@@H]1C(N)=O [DUR, durlobactam] | DUR formed carbamoyl-enzyme complexes with D,D-c (Fig. 3B), LdtMab2, and LdtMab4 (Fig. 3C and E). | 0.2 ± 0.1 | DUR formed carbamoyl-enzyme complexes with D,D-c (Fig. 3B), LdtMab2, and LdtMab4 (Fig. 3C and E). |  |
| BlaMab (Mycobacteroides abscessus ATCC 19977) |  |  |  | 22 |
